{
  "source": "paper PMC7749390",
  "about": "“Neuroprotective activity of Ulmus pumila L. in Alzheimer's disease in rats; role of neurotrophic factors” (Heliyon, 2020)",
  "key": {"Electric-eel AChE": {"target": "T1, Electric-eel AChE (Electrophorus electricus, UniProt O42275)", "T1 construct": "purchased Sigma", "T1 sequence (O42275 24-633)": "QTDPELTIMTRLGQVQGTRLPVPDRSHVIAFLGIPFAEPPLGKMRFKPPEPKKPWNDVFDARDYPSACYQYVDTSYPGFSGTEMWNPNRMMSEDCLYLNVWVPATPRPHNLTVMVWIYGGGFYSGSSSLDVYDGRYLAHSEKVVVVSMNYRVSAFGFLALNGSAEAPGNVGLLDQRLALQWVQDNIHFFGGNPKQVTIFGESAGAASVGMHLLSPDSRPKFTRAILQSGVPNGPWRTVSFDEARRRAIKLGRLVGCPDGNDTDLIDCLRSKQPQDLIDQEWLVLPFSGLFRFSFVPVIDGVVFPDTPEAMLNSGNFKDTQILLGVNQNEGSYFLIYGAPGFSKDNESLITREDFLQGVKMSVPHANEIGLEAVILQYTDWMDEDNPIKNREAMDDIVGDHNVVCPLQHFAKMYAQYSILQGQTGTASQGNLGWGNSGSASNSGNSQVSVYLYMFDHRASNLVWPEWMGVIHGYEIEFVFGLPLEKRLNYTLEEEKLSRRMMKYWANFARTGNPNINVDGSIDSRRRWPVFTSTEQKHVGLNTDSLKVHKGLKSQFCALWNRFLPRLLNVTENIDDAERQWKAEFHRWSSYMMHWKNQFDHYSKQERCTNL", "experiment": "biochemical", "settings": "for inhibition at 6.25 µM: read-out: % Inhibition 6.25μM; for inhibition at 12.5 µM: read-out: % Inhibition 12.5μM; for inhibition at 25 µM: read-out: % Inhibition 25μM; for inhibition at 50 µM: read-out: % Inhibition 50μM", "procedure": "The reaction mixture contained 150 μL of (100 mM) sodium phosphate buffer (pH 8.0), 10 μL of 5,5-Dithiobis-(2-nitrobenzoic acid) (DTNB, Sigma), 10 μL of test-extract solution and 20 μL of acetyl cholinesterase solution (Electric-eel AChE- Sigma) were mixed and incubated for 15 min (37 °C) followed by the addition of 10ml of acetylthiocholine (Sigma) to initiate the reaction. Hydrolysis of acetylthiocholine was monitored by the formation of yellow 5-thio-2- nitrobenzoate anion measured by UV- Vis Shimadzu spectrophotometer-USA at a wavelength of 412 nm (15 min).\nStatistical analysis: reactions were carried out in triplicates and the data were expressed as mean ± SEM. The inhibitory concentration (IC50) of the total extract and each compound, was graphically evaluated by a non-linear regression method using Graph Pad Prism (Ver. 5.0) software."}, "[1]": {"experiment": "DPPH radical scavenging assay"}, "[2]": {"experiment": "Superoxide anion scavenging assay"}, "[3]": {"settings": "table, mean ± SEM, n = 3, read-out: IC50"}},
  "note": "Read-outs that look alike come from different tables or passages of the source.",
  "data": [
    {"smiles": "Oc1cc(O)c2c(c1)OC(c1ccc(O)c(O)c1)C(O)C2", "note": "(single isomer, unassigned; (+)) [Compound 1, (+)-catechin]", "values": [
      {"measurement": "inhibition at 6.25 µM", "setting": "Electric-eel AChE; 6.25μM, mean ± SEM, n = 3", "result": "4.6 ± 1", "unit": "%"},
      {"measurement": "inhibition at 12.5 µM", "setting": "Electric-eel AChE; 12.5μM, mean ± SEM, n = 3", "result": "16.2 ± 2.4", "unit": "%"},
      {"measurement": "inhibition at 25 µM", "setting": "Electric-eel AChE; 25μM, mean ± SEM, n = 3", "result": "32.5 ± 2.5", "unit": "%"},
      {"measurement": "inhibition at 50 µM", "setting": "Electric-eel AChE; 50μM, mean ± SEM, n = 3", "result": "70.3 ± 1.2", "unit": "%"},
      {"measurement": "IC50", "setting": "Electric-eel AChE; [3]", "result": "33.61 ± 0.0295", "unit": "µM"}
    ]},
    {"smiles": "Oc1cc(O)c2c(c1)O[C@H](c1ccc(O)c(O)c1)[C@H](O)C2", "note": "[Compound 2, (-)-epicatechin]", "values": [
      {"measurement": "inhibition at 6.25 µM", "setting": "Electric-eel AChE; 6.25μM, mean ± SEM, n = 3", "result": "4.7 ± 0.7", "unit": "%"},
      {"measurement": "inhibition at 12.5 µM", "setting": "Electric-eel AChE; 12.5μM, mean ± SEM, n = 3", "result": "19.6 ± 2.6", "unit": "%"},
      {"measurement": "inhibition at 25 µM", "setting": "Electric-eel AChE; 25μM, mean ± SEM, n = 3", "result": "33.7 ± 1.2", "unit": "%"},
      {"measurement": "inhibition at 50 µM", "setting": "Electric-eel AChE; 50μM, mean ± SEM, n = 3", "result": "73.6 ± 1.8", "unit": "%"},
      {"measurement": "IC50", "setting": "Electric-eel AChE; [3]", "result": "31.62 ± 0.04", "unit": "µM"}
    ]},
    {"smiles": "O=c1c(O[C@@H]2O[C@H](CO)[C@@H](O)[C@H](O)[C@H]2O)c(-c2ccc(O)cc2)oc2cc(O)cc(O)c12", "note": "[Compound 3, kaempferol 3-o-β-D-glucoside]", "values": [
      {"measurement": "IC50", "setting": "Electric-eel AChE", "result": "29.03 ± 0.0155", "unit": "µM"},
      {"measurement": "inhibition at 6.25 µM", "setting": "Electric-eel AChE", "result": "3.7 ± 0.6", "unit": "%"},
      {"measurement": "inhibition at 12.5 µM", "setting": "Electric-eel AChE", "result": "14.6 ± 1.2", "unit": "%"},
      {"measurement": "inhibition at 25 µM", "setting": "Electric-eel AChE", "result": "39.4 ± 0.8", "unit": "%"},
      {"measurement": "inhibition at 50 µM", "setting": "Electric-eel AChE", "result": "79.3 ± 0.8", "unit": "%"}
    ]},
    {"smiles": "O=c1c(O[C@@H]2O[C@H](CO)[C@@H](O)[C@H](O)[C@H]2O)c(-c2ccc(O)c(O)c2)oc2cc(O)cc(O)c12", "note": "[Compound 5, quercetin-3-O-β-D-gulucopyranoside]", "values": [
      {"measurement": "IC50", "setting": "Electric-eel AChE", "result": "31.72 ± 0.017", "unit": "µM"},
      {"measurement": "inhibition at 6.25 µM", "setting": "Electric-eel AChE", "result": "3.9 ± 1", "unit": "%"},
      {"measurement": "inhibition at 12.5 µM", "setting": "Electric-eel AChE", "result": "14.4 ± 0.9", "unit": "%"},
      {"measurement": "inhibition at 25 µM", "setting": "Electric-eel AChE", "result": "36.3 ± 1.6", "unit": "%"},
      {"measurement": "inhibition at 50 µM", "setting": "Electric-eel AChE", "result": "72.8 ± 2.6", "unit": "%"}
    ]},
    {"smiles": "CC1OC(OCC2OC(Oc3c(-c4ccc(O)cc4)oc4cc(O)cc(O)c4c3=O)C(O)C(O)C2O)C(O)C(O)C1O", "note": "(stereo not shown) [Compound 8, Kaempferol 3-o-robinobioside]", "values": [
      {"measurement": "inhibition at 6.25 µM", "setting": "Electric-eel AChE; 6.25μM, mean ± SEM, n = 3", "result": "1.5 ± 0.8", "unit": "%"},
      {"measurement": "inhibition at 12.5 µM", "setting": "Electric-eel AChE; 12.5μM, mean ± SEM, n = 3", "result": "4.4 ± 0.9", "unit": "%"},
      {"measurement": "inhibition at 25 µM", "setting": "Electric-eel AChE; 25μM, mean ± SEM, n = 3", "result": "19.9 ± 1.8", "unit": "%"},
      {"measurement": "inhibition at 50 µM", "setting": "Electric-eel AChE; 50μM, mean ± SEM, n = 3", "result": "59.3 ± 2.9", "unit": "%"},
      {"measurement": "IC50", "setting": "Electric-eel AChE; [3]", "result": "43.13 ± 0.13", "unit": "µM"}
    ]},
    {"smiles": "O=C1O[C@H]([C@@H](O)CO)C(O)=C1O", "note": "[ascorbic acid]", "values": [
      {"measurement": "IC50, free radical scavenging activity (DPPH assay)", "setting": "[1]", "result": 5.6, "unit": "mg/L"}
    ]},
    {"smiles": "CN(CCCCCCN(C)C(=O)Oc1ccc[n+](C)c1)C(=O)Oc1ccc[n+](C)c1", "note": "[distigmine bromide, reference compound]", "values": [
      {"measurement": "IC50", "setting": "Electric-eel AChE", "result": "26.83 ± 0.02", "unit": "µM"}
    ]},
    {"smiles": "O=c1c(O)c(-c2ccc(O)c(O)c2)oc2cc(O)cc(O)c12", "note": "[quercetin]", "values": [
      {"measurement": "IC50, superoxide anion radical inhibitory activity", "setting": "[2]", "result": "45.3 ± 1.6", "unit": "mg/L"}
    ]}
  ]
}
